# Target: cruzipain (Trypanosoma cruzi, UniProt P25779)
# Assay: biochemical
# Conditions: 50 pM cruzipain, pH 5.5, 15 minutes preincubation, 2 μM Z-Phe-Arg-AMC substrate
# Method: The assay solutions were mixed and incubated for 15 minutes at room temperature prior to the addition of 2 μM of Z-Phe-Arg-AMC substrate. […] Percent of inhibition were calculated by fitting experimental values to standard mathematical model for dose response curve.
# Chain of cruzipain (P25779 123-467): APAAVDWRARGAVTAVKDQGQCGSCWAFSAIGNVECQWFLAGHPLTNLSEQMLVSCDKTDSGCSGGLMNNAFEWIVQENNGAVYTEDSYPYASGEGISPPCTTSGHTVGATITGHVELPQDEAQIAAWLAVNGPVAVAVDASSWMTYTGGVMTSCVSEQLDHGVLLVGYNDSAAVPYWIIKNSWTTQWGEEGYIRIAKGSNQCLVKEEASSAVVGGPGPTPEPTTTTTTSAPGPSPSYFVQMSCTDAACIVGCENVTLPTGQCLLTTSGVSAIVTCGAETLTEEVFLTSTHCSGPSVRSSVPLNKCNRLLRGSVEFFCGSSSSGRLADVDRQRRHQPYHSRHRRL
row,Compound,IC50 [nM]
1,"CC(C)(O)Cc1ccc(-c2ccc([C@H](N[C@@H](CC(C)(C)F)C(=O)N[C@H](C#N)Cc3ccc(C#N)cc3F)C(F)(F)F)cc2)cc1 [Example 42, (S)-4-Fluoro-4-methyl-2-{(S)-2,2,2-trifluoro-1-[4′-(2-hydroxy-2-methyl-propyl)-biphenyl-4-yl]-ethylamino}-pentanoic acid [(S)-1-cyano-2-(4-cyano-2-fluoro-phenyl)-ethyl]-amide]",0.9
2,"CC(C)(F)C[C@H](N[C@@H](c1ccc(-c2ccc(S(C)(=O)=O)cc2Cl)cc1)C(F)(F)F)C(=O)NC(C#N)Cc1ccc(C#N)cc1F (stereo partly drawn) [Example 7, (S)-2-[(S)-1-(2′-Chloro-4′-methanesulfonyl-biphenyl-4-yl)-2,2,2-trifluoro-ethylamino]-4-fluoro-4-methyl-pentanoic acid [1-cyano-2-(4-cyano-2-fluoro-phenyl)-ethyl]-amide]",0.9
3,"CC(C)(F)C[C@H](N[C@@H](c1ccc(Br)cc1)C(F)(F)F)C(=O)N[C@H](C#N)Cc1ccc(C#N)cc1F [Example 44, (S)-2-[(S)-1-(4-Bromo-phenyl)-2,2,2-trifluoro-ethylamino]-4-fluoro-4-methyl-pentanoic acid [(S)-1-cyano-2-(4-cyano-2-fluoro-phenyl)-ethyl]-amide]",9.4
4,"CC(C)[C@H](N[C@@H](c1ccc(-c2ccc([C@@H](O)C(F)F)cc2)cc1)C(F)(F)F)C(=O)N[C@H](C#N)Cc1c(F)cc(C#N)cc1F [Example 73, (S)-N-[(S)-Cyano-(4-cyano-2,6-difluoro-benzyl)-methyl]-2-{(S)-1-[4,- ((R)-2,2-difluoro-1-hydroxy-ethyl)-biphenyl-4-yl]-2,2,2-trifluoro-ethylamino}-3-methyl-butyramide]",0.7
5,"CC(C)(F)C[C@H](N[C@@H](c1ccc(-c2ccc(S(C)(=O)=O)cc2Cl)cc1)C(F)(F)F)C(=O)NC(C#N)Cc1ccc(C#N)cc1Cl (stereo partly drawn) [Example 6, (S)-2-[(S)-1-(2′-Chloro-4′-methanesulfonyl-biphenyl-4-yl)-2,2,2-trifluoro-ethylamino]-4-fluoro-4-methyl-pentanoic acid [2-(2-chloro-4-cyano-phenyl)-1-cyano-ethyl]-amide]",1.2

# Next, values leading:
row,IC50 [nM],Compound
1,12.2,"Cn1cccc1-c1ccc([C@H](N[C@@H](CC(C)(C)F)C(=O)N[C@H](C#N)Cc2ccccc2)C(F)(F)F)cc1 [Example 35, (S)-4-Fluoro-4-methyl-2-{(S)-2,2,2-trifluoro-1-[4-(1-methyl-1H-pyrrol-2-yl)-phenyl]-ethylamino}-pentanoic acid ((S)-1-cyano-2-phenyl-ethyl)-amide]"
2,7,"CC(C)(F)C[C@H](N[C@@H](c1ccc(-c2ccc(S(C)(=O)=O)cc2)cc1)C(F)(F)F)C(=O)N[C@H](C#N)Cc1ccc(-c2cccnc2)cc1 [Example 14, (S)-4-Fluoro-4-methyl-2-[(S)-2,2,2-trifluoro-1-(4′-methanesulfonyl-biphenyl-4-yl)-ethylamino]-pentanoic acid [(S)-1-cyano-2-(4-pyridin-3-yl-phenyl)-ethyl]-amide]"
3,5.6,"CC(C)[C@H](N[C@@H](c1ccc(-c2ccncc2)cc1)C(F)(F)F)C(=O)N[C@H](C#N)Cc1ccccc1 [Example 49, (S)-N-((S)-Benzyl-cyano-methyl)-3-methyl-2-[(S)-2,2,2-trifluoro-1-(4-pyridin-4-yl-phenyl)-ethylamino]-butyramide]"
